Laboratory results reported in US10123954B1, “Methods for treating skin” (AVON PRODUCTS, INC., priority 2015, dated 2018).
“Also recorded” adds a separate entry of the source.

How the values were obtained:
Format in all cases: cell-based
[1] = test system: Human 3D skin EFT400FT tissues; experiment: HA in full thickness 3D skin models; details: 4 consecutive days, n=12; 4% glycolic acid topically or 0.2% Tiliacora triandra via growth media
Description: A series of experiments was conducted to assess the effects of the treatment regimens of glycolic acid and Tiliacora triandra on the production of hyaluronic acid (HA) on full thickness 3D skin cultures. Five different treatment regimens were assessed: (1) 4% glycolic acid, alone; (2) 0.2% Tiliacora triandra, alone; (3) the combination of 4% glycolic acid+0.2% Tiliacora triandra; (4) 4% glycolic acid, alone, followed by 0.2% Tiliacora triandra, alone; and (5) 0.2% Tiliacora triandra, alone, followed by 4% glycolic acid, alone. Glycolic acid was administered topically to the 3D tissue and Tiliacora triandra was administered via the growth media. For treatment regimens (1), (2), and (3), the active ingredient or ingredients were applied to cells for 4 consecutive days. For treatment regimens (4) and (5) (sequential regimens), the cells were treated with glycolic acid or Tiliacora triandra for 2 days, followed by Tiliacora triandra or glycolic acid for 2 days, respectively.
Human 3D skin EFT400FT tissues (MatTek, Mass.) were cultured following the manufacturer's instructions. Each treatment regimen was applied to twelve 3D skin samples. […] Following treatment, cells were collected and the amount of hyaluronic acid secreted from the cells was measured using a commercially available HA assay (available from CORGENIX Inc., CO). […]

[2] = test system: human dermal fibroblast (HDF) cells; experiment: Hyaluronic Acid (HA) assessment in human dermal fibroblasts; details: 10 consecutive days, n=6, change over emulsion control, retinol 1 μM; for A alone (% change in HA): active A of Table 3 alone, Tiliacora triandra 0.10%, glycolic acid 1 mM, KTFK 0.001%, sodium glycolate 10 μM; for B alone (% change in HA): active B of Table 3 alone, niacinamide 0.1%, Coleus forskohlii 0.001%, Tiliacora triandra 0.1%, Tetrapeptide 4 0.10%, phytol 0.010%
Description: A series of experiments was conducted to assess the effects of the treatment regimens of active ingredients on the production of hyaluronic acid (HA) in human dermal fibroblast (HDF) cells. The following five treatment regimens were assessed: (1) active ingredient A, alone; (2) active ingredient B, alone; (3) the combination of active ingredients A+B; (4) active ingredient A, alone, followed by active ingredient B, alone (“A/B”); and (5) active ingredient B, alone, followed by active ingredient A, alone (“B/A”). For treatment regimens (1), (2), and (3), the active ingredients were administered to cells for 10 consecutive days. For treatment regimens (4) and (5) (sequential regimens), the cells were treated with active ingredient A or active ingredient B for 5 days, followed by active ingredient B or active ingredient A for 5 days, respectively.
Human dermal fibroblast cells were grown in 96-well plates in DMEM media (available from CORNING, N.Y.) supplemented with 10% FBS and L-glutamine. After reaching about 75% confluence, cells were transferred into DMEM media without FBS, and incubated for 4-6 hours. Different wells were assigned to one of treatment regimens (1)-(5) as described above, with six wells allocated to each treatment regimen (i.e., n=6). All active ingredients were prepared as emulsions and applied directly to the HDF cells. The specific active ingredients used in each of the five treatment regimens are provided below in Table 3. Following treatment, cells were collected and the amount of hyaluronic acid (HA) secreted from the cells was measured using a commercially available HA assay (available from CORGENIX Inc., CO).
The results are summarized below in Table 4 and plotted in FIGS. 13-17 as a percentage change over control (i.e. cells treated with the same emulsion but in absence of active ingredients).

[3] = test system: human dermal fibroblast (HDF) cells; experiment: Hyaluronic acid in human dermal fibroblasts, pulsed versus daily treatment; details: for % Change in HA over control (daily): 12 consecutive days; for % Change in HA over control (daily) / % Change in HA over control (pulsed): Tiliacora triandra 0.05%, niacinamide 0.10%, glycolic acid 1 mM, retinol 1 μM, phytol 0.01%; for % Change in HA over control (pulsed): 2 days active / 2 days media without active, repeated over 12 days; for HA production, pulsed treatment compared with daily treatment: pulsed uses half as much active over 12 days
Description: After reaching about 75% confluence, cells were transferred into DMEM media without FBS, and incubated for 4-6 hours. Different wells were assigned to one of treatment regimens (1)-(2) as described above, with six wells allocated to each treatment regimen. All active ingredients were prepared as emulsions and applied directly to the HDF cells. […] Following treatment, cells were collected and the amount of hyaluronic acid (HA) secreted from the cells was measured using a commercially available HA assay (available from […] Inc., CO).

[4] = test system: Human 3D MelanoDerm MEL-B skin tissues; experiment: Melanin in 3D skin models (SOLVABLE melanin assay); details: 14 consecutive days, n=6, change from control, niacinamide 0.1%; for A (% change in pigmentation): active A of Table 8 alone, TDPA 1%; for B (% change in pigmentation): active B of Table 8 alone, hexylresorcinol 0.05%
Description: A series of experiments was conducted to assess the effects of treatment regimens of active ingredients shown in Table 8 on the production of melanin in 3D models. Four different treatment regimens were assessed: (1) active ingredient A, alone; (2) active ingredient B, alone; (3) the combination of active ingredients A+B; and (4) active ingredient A, alone, followed by active ingredient B, alone, as detailed in Table 8. For treatment regimens (1), (2), and (3), the active ingredients were applied to cells for 14 consecutive days. For treatment regimen (4) (sequential regimen), the cells were treated with active ingredient A for 7 days, followed by treatment with the other active ingredient B for 7 days.
Human 3D MelanoDerm MEL-B skin tissues (available from MatTek, Mass.) were cultured following the manufacture instructions. Different skin tissue models were assigned to one of treatment regimens (1)-(4) as described above, with six models allocated to each treatment regimen (i.e., n=6). All active ingredients were prepared as emulsions and applied directly to the skin models. Following treatment, skin tissue models were collected and the amount of melanin produced from the cells was measured using a SOLVABLE melanin assay. Treated skin tissues were prepared using a phosphate buffer saline and sodium bicarbonate. Each skin tissue is added to 500 μl of 0.5 M SOLVABLE solubilizer (available from Packard BioScience) and incubated at 95° overnight. The absorbance of each skin tissue sample is measured at 490 nm and the absorbance is compared to a standard curve to indicate the amount of melanin produced and pigmentation in each skin tissue model.
The results for treatments measuring the melanin content produced are shown in Table 9 as a percentage change from control (i.e., untreated samples or samples treated with the same emulsion but in absence of active ingredients).

[5] = test system: human dermal fibroblast (HDF) cells; experiment: Pro-collagen type I assessment in human dermal fibroblasts (ELISA); details: 10 consecutive days, change from emulsion control, retinol 1 μM; for A alone (% change in pro-collagen): active A of Table 6 alone, phytol 0.0001%
Description: A series of experiments was conducted to assess the effects of the treatment regimens of active ingredients shown in Table 6 on the production of pro-collagen type I in human dermal fibroblast (HDF) cells. Five different treatment regimens were assessed: (1) active ingredient A, alone; […] (3) the combination of active ingredients A+B; […] For treatment regimens (1), (2), and (3), the active ingredients were applied to cells for 10 consecutive days. […] After reaching about 75% confluence, cells were transferred into DMEM media without FBS, and incubated for 4-6 hours. Different wells were assigned to one of treatment regimens (1)-(5) as described above, with six wells allocated to each treatment regimen. All active ingredients were prepared as emulsions and applied directly to the HDF cells. The specific active ingredients used in each of the five treatment regimens are provided below in Table 6. Following treatment, measurements on the amount of pro-collagen produced from the cells were performed using a commercially available pro-collagen type I enzyme-linked immuno sorbent assay (ELISA) kit (available from TAKARA Inc., KR). [table]

[6] = test system: Human dermal fibroblast cells; experiment: Pro-collagen I secretion by human dermal fibroblasts (HTRF human pro-collagen I kit); details: 0.0001% phytol or 1 μM retinol alone for 16 days, re-treated every other day
Description: Human dermal fibroblast cells were grown in a 6-well plate in DMEM media (available from Corning, N.Y.) supplemented with 10% Fetal Bovine Serum (FBS) and L-glutamine (1.5×10^5 cells/plate) overnight. After reaching about 75% confluence, cells were transferred into DMEM media without FBS and incubated for 4-6 hours. Next, the cells were treated with either 0.0001% phytol or 1 μM retinol. Treatment with either phytol alone, or retinol alone was performed in DMEM media without FBS for 16 days. For sequential treatments, the cells were treated with 0.0001% phytol for 6 days followed by 1 μM retinol for 10 days, or with 1 μM retinol for 6 days, followed by 0.0001% phytol for 10 days. Every other day, media were collected and cells were re-treated with phytol or retinol in the same fashion. After treatment, the amount of collagen secreted into the culture media was determined using the HTRF human pro-collagen I kit (available from CISBIO, Inc).

| Compound | A alone (% change in HA) [2] [%] | % Change in HA over control (daily) [3] [%] | % Change in HA over control (pulsed) [3] [%] | HA production, pulsed treatment compared with daily treatment [3] | B alone (% change in HA) [2] [%] | further results |
| --- | --- | --- | --- | --- | --- | --- |
| O=C(O)CO [Glycolic Acid] | 20.8 | 9.1 | 5.1 | only slightly less effective than daily treatment | – | percentage change in HA over control, active alone [1]: 42.6% |
| NC(=O)c1cccnc1 [Niacinamide] | – | −36.5 | 1.3 | – | −51.6 | A (% change in pigmentation) [4]: −18.9%; B (% change in pigmentation) [4]: −18.9% |
| CC1=C(/C=C/C(C)=C/C=C/C(C)=C/CO)C(C)(C)CCC1 [Retinol] | 11.7 | 17.2 | 32.0 | significantly more production of hyaluronic acid than in daily treatment regimens | 11.7 | A alone (% change in pro-collagen) [5]: 13.6%; B alone (% change in pro-collagen) ([5]; active B of Table 6 alone, Coleus forskohlii 0.001%): 3.9%; pro-collagen production over treatment time [6]: declines for both phytol- and retinol-treated cells after day 13 despite continuing treatment; also recorded: plateau in effectiveness over time |
| O=C([O-])CO.[Na+] [Sodium Glycolate] | −2.54 | – | – | – | – | – |
| CCCCCCc1ccc(O)cc1O [Hexylresorcinol] | – | – | – | – | – | B (% change in pigmentation) [4]: 140.4% |
| O=C(O)CCSCCC(=O)O [TDPA, thiodipropionic acid] | – | – | – | – | – | A (% change in pigmentation) [4]: −19.1% |
| Tetrapeptide-4 [Tetrapeptide 4] | – | – | – | – | 15.1 | – |
| Lys-Thr-Phe-Lys (KTFK; printed: Lys-Thr-Phe-Lys) | 23.7 | – | – | – | – | – |
| C/C(=C\CO)CCC[C@H](C)CCC[C@H](C)CCCC(C)C [Phytol] | – | −4.0 | 25.1 | significantly more production of hyaluronic acid than in daily treatment regimens | 67.7 | A alone (% change in pro-collagen) [5]: 19.1%; pro-collagen production over treatment time [6]: declines for both phytol- and retinol-treated cells after day 13 despite continuing treatment; also recorded: plateau in effectiveness over time |
